The record followed here is patent US20150368616A1, “METHODS FOR INDUCTION OF CELL FATES FROM PLURIPOTENT CELLS” (THE CLEVELAND CLINIC FOUNDATION, priority 2013, published 2015).

Bounds are passed on as bounds.

The test system of one assay is Ngn3 protein. The assay is described as follows: Ngn3 protein stability and half-life in HepG2 cells, cycloheximide time course, Western blot. The class given is cell-based. The source says:
I. Protein stability and half-life assessment of Ngn3 in HepG2 cells. HepG2 cells were transfected with pTRE2-Ngn3 and pCMV-rtTA, treated with Doxycycline for 24 hr, and on the subsequent day pre-exposed to the proteasomal inhibitor MG132 for 5 hr. At time t=0, protein synthesis was inhibited by cycloheximide (CHX). Western blot using anti-Ngn3 antibodies are shown; b-actin served as a control, and remains stable. MG132 treatment leads to Ngn3 protein accumulation at t=0, and strongly stabilizes the protein, which rapidly decays in non-treated cells. J. Experiment conducted similarly as in I, but CMV-driven versions of Notch1 and Notch2 intracellular domains (N1ICD, N2ICD respectively) (left), or dominant-negative mastermind-like1 (DN-MAML1) were co-transfected with pTRE2-Ngn3. The left-most blot is overexposed to reveal the lower level of accumulated Ngn3 protein in presence of N1ICD, N2ICD, and the loss of Ngn3 upon CHX treatment. The analysis was done 1 hr post CHX treatment. […] K. Mouse pancreatic E14.5 explants were subjected to short-term treatment of CHX (1 hr) and MG132 (5 hr pre, and post-culture) as indicated. Total protein was isolated and subjected to anti-Ngn3 Western blotting. Levels of Ngn3 increase in presence of MG132, and decrease in response to CHX. Ngn3 protein levels increase correspondingly in presence of DAPT, a condition where the protein remains stable (CHX+DAPT lane). L. Stability measurements of Ngn3 in the presence of various cellular regulatory proteins. The experiment was conducted as in I and J. Decay scans (right) provide a measure of the decay rate of Ngn3. In all cases, the t=0 Ngn3 levels prior to CHX treatment is paralleled by the relative half-life of the protein. Destabilizing conditions include N1ICD, N2ICD, and Hes1. Stabilizing conditions include DN-MAML1 and DAPT-treatment. […] Hes1 is able to destabilize Ngn3 in the presence of DN-MAML1.
While Hes1 is known to directly repress Ngn3 expression, this would be an insufficient explanation for the observed results in which Ngn3 was driven by a Pdx1-tTA;tetO governed system. […] As destabilization of other bHLH factors, including NGN, and hASH1 has been observed, which has also implicated Notch, we then tested if a similar mechanism might operate in pancreas. As a means to mechanistically address this question, we first determined if Ngn3 protein half-life was regulated by proteasomal activity. Using three different heterologous cell lines (HepG2, Hek293, and CHO) conditionally expressing Ngn3, we observed a rapid turnover of Ngn3 protein after cycloheximide (CHX) addition; conditions where the control protein, beta-Actin, remained stable (FIG. 34I and data not shown). […]
For orientation: In western blotting, separated proteins are transferred to a membrane and probed.

For assay [1], the system named is mouse WT pancreatic explants (E12.5). The assay is described as follows: Mouse WT pancreatic explants (E12.5) cultured 4 days with DAPT; staining and qRT-PCR. The class given is cell-based. The settings on record: for ductal cell development: 4 days. As for the experimental part: […] Sections were stained against Mucin1, carboxypeptidase1 (CPA) and glucagon (Glu). C. qRT-PCR analysis of explants performed as in A, B. Pancreatic marker genes were assessed and fold-changes to WT explants treated with DMSO were calculated by DDct method, using GAPDH mRNA as internal standard.
Given that pancreatic ductal cells form in Ngn3 null mice, and because ductal genes have not been identified as direct Ngn3 targets, we set forth to determine if the cell-extrinsic mechanism involving Notch indeed was causal for the Ngn3 Delayed ON phenotype. We first tested if pancreatic ductal cell differentiation was dependent on Notch. We cultured WT pancreatic explants in the presence of DAPT (FIG. 35A, B, C). These experiments were based on E12.5 pancreas, as at that age, the majority of tip/trunk patterning has occurred, and cells are actively undergoing terminal fate decisions. These cultures developed significant numbers of Muc1+ ductal cells during culture in absence of DAPT (FIG. 35A), with a density exceeding that found in-vivo. Acinar cell development (CPA1+) proceeded in WT (FIG. 35A), albeit at a much reduced level compared to normal development. […] Given that Notch processing inhibition strongly affected cellular differentiation, we investigated this further by performing qRT-PCR on similar-type explants (FIG. 35C).
A general note: Quantitative PCR measures a nucleic acid by following its amplification.

In assay [2] the test system is E12.5 Ngn3 Delayed ON pancreas. The assay is described as follows: Ngn3 Delayed ON pancreas (E12.5) explant culture 4 days with and without DAPT, immunofluorescence. The class given is cell-based, mouse. The settings on record: four days ex-vivo. The source says:
D-K. Ngn3 Delayed ON pancreas (E12.5, doxycycline was provided at E7.5, E9.5 as in FIG. 2A) was isolated and subjected to 4 days of explant culture with and without DAPT as described in A,B. Immunofluorescence analyses of explant pancreas using select pancreatic markers, after 4 days in culture. D′: insert image showing the expression of glucagon.
Given that Dll1 and Hes1 were >2-fold increased in the E12.5 Ngn3 Delayed ON pancreas, we next asked to what degree Notch processing was also required for the enhanced Ngn3-mediated ductal cell formation in that model. Similar to above, microdissected E12.5 Ngn3 Delayed ON pancreas was cultured for four days ex-vivo with and without DAPT (FIG. 36D-K). In contrast to WT explants, Ngn3 Delayed ON pancreas developed in a quite similar manner as observed in-vivo; in addition to widespread ductal formation, glucagon-producing clusters were observed, and extremely few acinar cells were found (FIG. 36D, F, H). Similar results were obtained using staining for Hnf1β (data not shown). […] The Ngn3-mediated ductal cell formation was abrogated by DAPT treatment ([…]). […] We conclude that Notch signaling is required for both normal, as well as Ngn3-mediated, pancreatic ductal cell development, and that blocking this pathway promotes acinar and endocrine fates at the expense of ductal cells. Of note, at high levels of DAPT treatment, γ-secretase inhibition impacts endocrine subtype determination as well, and if a concomitant increase in Ngn3 protein is provided, the organ regains capacity for significant insulin-cell differentiation.

Take `C[C@H](NC(=O)Cc1cc(F)cc(F)c1)C(=O)N[C@H](C(=O)OC(C)(C)C)c1ccccc1` [DAPT, N—[N-(3,5-Diflurophenacetyl-L-alanyl)]-S-phenylglycine t-Butyl Ester]: in the assay with Ngn3 protein (HepG2 cells, DAPT at 50 μM), the “total Ngn3 protein levels and stability” value was “increase in total Ngn3 protein levels”. Besides, in assay [1] (100 μM DAPT), the ductal cell development result is “fully abolished”. Moreover, in assay [1] (100 μM DAPT, qRT-PCR), the Gcg expression result was “reduced” and the “Ins1, Ins2 expression” value is listed as “further enhanced”. In assay [1] (25-50 μM DAPT), the ductal cell development result was “significantly reduced”. For the same molecule, in assay [1] (qRT-PCR), the “Ngn3, NeuroD1, Nkx6.1 expression” value is listed as “dose-dependent increases”; the Sox9 expression result is on record as “Sox9 expression was reduced”; the “acinar gene expression (Cpa1, Cpa2, Ptf1a)” value was “strongly promoted”. Further, in assay [2], the “Ngn3-mediated ductal cell formation” value is given as “abrogated”, the “Pdx1+/Ins+ endocrine cells” value is “numerous”, the “acinar density (CPA1+ cells)” value is reported as “much increased” and the glucagon-expressing cells entry is “correspondingly reduced”.

B1: Ngn3: pro-endocrine bHLH factor, 214 amino acids (protein, UniProt Q9Y4Z2 1-214, looked up)
chain: MTPQPSGAPTVQVTRETERSFPRASEDEVTCPTSAPPSPTRTRGNCAEAEEGGCRGAPRKLRARRGGRSRPKSELALSKQRRSRRKKANDRERNRMHNLNSALDALRGVLPTFPDDAKLTKIETLRFAHNYIWALTQTLRIADHSLYALEPPAPHCGELGSPGGSPGDWGSLYSPVSQAGSLSPAASLEERPGLLGATFSACLSPGSLAFSDFL
modifications: full-length
notes: pro-endocrine bHLH factor, 214 amino acids
For the molecule B1, the “half-life of Ngn3 (T1/2)” value is reported as < 15 ′ with Ngn3 protein (HepG2 cells co-expressing N1ICD or N2ICD) and ~30 ′ in the assay on Ngn3 protein (HepG2 cells, CHX time course, non-treated).
